Assay results from the pKa sets of Baltruschat and Czodrowski (2020).

Conditions: basic group

| Structure (SMILES) | pKa |
| --- | --- |
| Nc1ncnc2ncn([C@H]3O[C@H](CO)[C@@H](O)[C@H]3O)c12 | 3.9 |
| CN1CC=CCN1C | 5.7 |
| [O-]c1nc(C(F)(F)F)nc2nc[nH]c12 | 5.1 |
| CN1CCC2=C(C1)C(c1ccccc1)c1ccccc12 (stereo not given) | 8.29 |
| Cc1ccc(S(=O)(=O)N2CCNCC2)cc1 | 7.41 |
| [O-]c1ccc(O)c2ccccc12 | 11 |
| CCCCCCNc1ccccc1 | 5.21 |
| Cc1ccc(N(C)CO)cc1 | 3.73 |
| C[NH2+]CC/C(N)=N/O | 3.6 |
| Cc1ccc(C)nn1 | 3.99 |
| CCN(CC)CCNc1nc(N)nc(C)c1C | 9.7 |
| Cc1cc(-c2[nH]cc[nH+]2)nn1C | 2 |
| C=CCN1CCCCC1 | 9.66 |
| [S-]CCNCc1ccccc1 | 10.3 |
| CSc1ccc(N)cc1 | 4.4 |
| CCCOC(=O)c1ccc(N)cc1 | 2.49 |
| CCN(CC)C(C)(C)C=O | 8.3 |
| NCCCCBr | 10 |
| C=C(C)C(=O)NC(C)(C)CCN(C)C | 9.37 |
| Nc1ccccc1N | 4.43 |
| O=c1cccccc1 | -0.82 |
| Clc1ccc(C/C(=C\CN2CCCC2)c2ccccc2)cc1 | 8.77 |

| Structure (SMILES) | pKa |
| --- | --- |
| CN(C)CCC/N=C(\c1ccccc1)c1ccccc1-c1ccccc1 | 9.2 |
| COc1cc(S(C)=O)ccc1-c1nc2cnccc2[nH]1 (stereo not given) | 6.16 |
| Cn1cnc2[nH]c(=O)[nH]c(=S)c21 | 0.3 |
| [NH3+]CCc1cccnc1 | 4.64 |
| C[NH2+]Cc1ccccn1 | 2.91 |
| NC(=O)CCCCc1cccnc1 | 5.6 |
| N/C(CC[NH3+])=N\O | 3.75 |
| NC[C@H](O)C(=O)[O-] | 9.27 |
| NCC(N)C[NH3+] | 7.95 |
| Cn1c(=O)c2c([O-])cnnc2n(C)c1=O | 8.51 |
| CCCNc1ccncc1S(=O)(=O)NC(=O)NC(C)C | 7.58 |
| Cc1nc2ccccc2c(NCCC[NH+](C)C)c1[N+](=O)[O-] | 5.35 |
| CC[NH+](CC)CCNc1nc(N)nc(C)c1C | 7.9 |
| N[C@@H](CCCCN1C(=O)C[C@H](N)C1=O)C(=O)[O-] | 9.5 |
| C[C@@H]1CCN2CC[C@H](O)[C@H]12 | 10.9 |
| Nc1ccccc1F | 2.96 |
| Cc1ccccc1NN=C(C#N)C#N | -0.84 |
| C1CCC2(CC1)N1CCCN12 (stereo not given) | 5.19 |
| CCCN(C)c1ccccc1 | 5.67 |
| CSc1ccnc2ccccc12 | 5.81 |
| [O-]c1nccc2cccnc12 | 12 |
| C[NH+](C)CCCNc1ccnc2cc([N+](=O)[O-])ccc12 | 6.77 |

| Structure (SMILES) | pKa |
| --- | --- |
| Cn1cc(Cl)cn1 | 0.16 |
| Cc1nc(N)c2cn[nH]c2n1 | 5.41 |
| Brc1ccc(-c2cnc(-c3ccccc3)o2)cc1 | 0.65 |
| C[C@@H]1[C@@H]2Cc3ccc(O)cc3[C@@]1(C)CCN2CCF | 8.35 |
| C[C@@H]([C@H](O)c1ccccc1)N(C)C | 9.22 |
| CCc1nc2ccccc2[nH]1 | 6.2 |
| Nc1ccc2c(c1)Cc1cc(O)ccc1-2 | 4.88 |
| c1cncc([C@@H]2CCCCN2)c1 | 4.01 |
| CC[NH+](CC)CCN=C(c1ccccc1C)c1ccccc1C | 2.8 |
| C[NH+](C)CCNc1ccnc2cccc([N+](=O)[O-])c12 | 5.77 |
| CN(C)C | 9.96 |
| CNCCO | 9.91 |
| C[n+]1ccc(N)nc1[O-] | 4.52 |
| c1ccc(C(CCN2CCOCC2)c2ccccc2)cc1 | 7.25 |
| Nc1ccc(C(O)(c2ccccc2)c2ccc(N)cc2)cc1 | 5.83 |
| CC(C)CSC(=N)c1ccccc1 | 8.22 |
| C1=C(c2ccccc2)C2CCN1CC2 | 9.1 |
| Nc1cncnc1 | 2.83 |
| [S-]c1nccc[nH+]1 | 1.3 |
| COc1ccnc2ccccc12 | 6.45 |
| C#CCN1CCOCC1 | 5.54 |
